In patent US10711006B2, “Selective Bruton's tyrosine kinase inhibitor and use thereof” (HANGZHOU HERTZ PHARMACEUTICAL CO., LTD., priority 2016, dated 2020):

Key:
ITK = ITK (Homo sapiens (Human), UniProt Q08881); assay: Kinase selectivity experiment, ITK; type: biochemical; settings: read-out: Inhibitory activity against ITK (IC50)
Method: (§1) A 1× kinase base buffer and a reaction stop buffer for respective kinases in the experiment were prepared as required.
(§2) Preparation of Compounds to be Tested:
(§3) 2) diluting each compound at a 5-fold concentration gradient in a 96-well plate to 6 to 7 concentrations and ensuring that the drug volume in each well was 10 μl; and at the same time adding 100 μl of DMSO to prepare a blank control group and also preparing a negative control group without the enzyme substrate; and
(§4) 3) preparing another 96-well plate, adding 10 μl of each of the above compounds to 90 μl of the 1× kinase base buffer and mixing for 10 minutes to be uniform.
(§5) Preparation of the Plate to be Tested:
(§6) 1) 5 μl of the mixed solution prepared as above in the 96-well plate was taken and transferred to a 384-well plate, with two replicate wells for each compound.
(§7) 1) Preparing a 2.5× kinase solution and adding a corresponding 1× kinase base buffer;
(§8) 2) preparing a 2.5× polypeptide solution and adding FAM-labeled polypeptide and ATP in the 1× kinase base buffer; and
(§9) 3) adding 10 μl of 2.5× kinase solution to a 384-well plate to be tested, placing in a room-temperature environment for 10 minutes, and then adding 10 μl of the 2.5× polypeptide solution, reacting at 28° C. for 1 hour, and then adding 25 μl of a reaction stop buffer.
(§10) The Caliper program reads the plate and uses the data to obtain the IC50 values of the corresponding compounds against kinases.

JAK3 = JAK3 (Homo sapiens (Human), UniProt P52333); assay: Kinase selectivity experiment, JAK3; type: biochemical; settings: read-out: Inhibitory activity against JAK3 (IC50)
Method: as §1, §2, §3, §4, §5, §6, §7, §8, §9, §10

FGR = FGR (Homo sapiens (Human), UniProt P09769); assay: Kinase selectivity experiment, FGR; type: biochemical; settings: read-out: Inhibitory activity against FGR (IC50)
Method: as §1, §2, §3, §4, §5, §6, §7, §8, §9, §10

[1] = system: diffuse giant B-cell lymphoma (OCI-LY10); assay: In-vitro tumor cell proliferation inhibition (CCK-8), OCI-LY10; settings: Homo sapiens, OCI-Ly10, 72 h, read-out: Tumor cell proliferation inhibitory activity (IC50, nM) OCI-LY10
Method: (§11) The in-vitro antitumor activity assay was carried out on the synthesized compound by using different solid tumors and leukemia cell lines:
(§12) Cell lines: human lung cancer cell (A549), human mantle cell lymphoma (MINO), diffuse giant B-cell lymphoma (OCI-LY10), and human diffuse large B lymphoma (TMD-8).
(§13) Preparation method of the drug: the drug was dissolved in DMSO to make a 10 mM stock solution, and then the stock solution was diluted in a certain ratio to obtain 5 different concentrations (test concentration 100×). In-vitro culture of tumor cells:
(§14) The tumor cells A549, MINO, OCI-LY10, and TMD-8 were seeded in a 96-well plate at 4000 cells/200 μL/well and then incubated overnight at 37° C. in a 5% CO2 cell culture incubator. 2 μL of the compound was added to each well to final concentrations of 50 μM, 10 μM, 2 μM, 0.4 μM, and 0.08 μM and then incubated for 72 hours at 37° C. in a 5% CO2 cell incubator, with DMSO (2%) as a control group. […] Wells loaded with the corresponding amount of cell culture fluid the and CCK-8 solution but no cells were considered as blank controls. The absorbance (OD value) was measured at 450 nm using a microplate reader, and the obtained data was used to calculate IC50.

[2] = system: arthritis induced by anti-collagen antibodies and lipopolysaccharides; assay: Rheumatoid arthritis model induced by anti-collagen antibodies and lipopolysaccharides; type: in vivo, Balb/c mice
Method: In Balb/c mice, arthritis was induced by administration of anti-collagen antibodies and lipopolysaccharides (Nandakumar et al., Am. J. Pathol. 2003, 163: 1827-1837).
The specific method was as follows: On Day 0, female Balb/c mice were intravenously injected with anti-type II collagen ChemicomAb mixture in a dose of 100 mg/kg, and on Day 1, lipopolysaccharide was intraperitoneally injected in a dose of 1.25 mg/kg. From Day 2 to Day 12, Compounds 15a, 17a, 24a and 24e were orally administered once a day in a dose of 10 mg/kg. On Day 13 after abdominal anesthesia, […] of blood was taken from the femoral artery and centrifuged at 3000 r/min for 20 minutes, serum was taken to detect IL-1β with a test kit, and related tissue samples were observed.

FLT3 = FLT3 (Homo sapiens (Human), UniProt P36888); assay: Kinase selectivity experiment, FLT3; type: biochemical; settings: read-out: Inhibitory activity against FLT3 (IC50)
Method: as §1, §2, §3, §4, §5, §6, §7, §8, §9, §10

CSK = CSK (Homo sapiens (Human), UniProt P41240); assay: Kinase selectivity experiment, CSK; type: biochemical; settings: read-out: Inhibitory activity against CSK (IC50)
Method: as §1, §2, §3, §4, §5, §6, §7, §8, §9, §10

hERG potassium channel = hERG potassium channel (Homo sapiens (Human), UniProt Q12809); assay: hERG potassium channel inhibitory activity, manual patch clamp in CHO cells; type: cell-based; settings: CHO cells stably expressing hERG, whole-cell patch clamp
Method: The cells used in this experiment were CHO cell lines transfected with HergCdna and stably expressing Herg channels (supplied by Sophion Bioscience, Denmark). The cells were cultured in a medium containing the following components (all from Invitrogen): Ham's F12 medium, 10% (v/v) inactivated fetal bovine serum, 100 μg/ml hygromycin B, 100 μg/ml Geneticin. […] 24 to 48 hours before an electrophysiological experiment, CHO Herg cells were transferred to circular slides placed in the culture dishes and grow with the same culture liquid under the same culture conditions as above. The density of CHO Herg cells on each circular slide was required to reach such a value that most cells were independent and stand alone.
2. Treatment and Dilution of a Compound
Before the test, the compound was first diluted with DMSO at gradient to make stock solutions with concentrations of 10, 3, 1, 0.3 and 0.1 Mm and the stock solutions were then diluted with extracellular fluid to a final Mm test concentration. Except that the DMSO concentration in the 30 Mm compound test solution was 0.3%, the final concentration of DMSO in each of the compound solutions with other concentrations was 0.1%. The test concentration of a positive control Cisapridewas 0.1 Mm. All compound solutions were conventionally sonicated and shaken for 5 to 10 minutes to ensure complete dissolution of the compound.
3. Electrophysiological Recording System and Data Analysis
This experiment uses a manual patch clamp system (HEKA EPC-10 signal amplifier and digital conversion system, purchased from HEKA Electronics, Germany) for the recording of whole cell currents. The circular slides with CHO Herg cells growing on the surfaces were placed in an electrophysiological recording slot under an inverted microscope. The extracellular fluid was used for continuous perfusion in the recording slot (approximately lml per minute). The experimental procedure uses a conventional whole-cell patch clamp current recording technique. Unless otherwise stated, the experiment was carried out at regular room temperature ([…]). The cells were clamped at a voltage of −80 Mv. The cell clamp voltage was depolarized to +20 Mv to activate the Herg potassium channel, and 5 seconds later, it was clamped to −50 Mv to eliminate inactivation and generate tail current. The peak of the tail current was used as the value of the Herg current. After the hERG potassium current recorded in the above step was stabilized under the continuous extracellular fluid perfusion in the recording slot, the drug to be tested can be superimposed to the perfusion until the inhibitory effect of the drug on the hERG current reaches a steady state. Generally, the criterion for determine whether or not the stable state was reached was that the recent three consecutive current recording lines were coincident. After the steady state was reached, extracellular fluid perfusion was carried out for flushing until the hERG current returns to the magnitude before the drug was added. One cell may be used for testing one or more drugs, or multiple concentrations of the same drug, and flushing with extracellular fluid was carried out between tests of different drugs. Cisapride (purchased from Sigma) was used in the experiment as a positive control to ensure that the cells used were of normal quality. The test data was analyzed by data analysis software provided by HEKA Patchmaster, Microsoft Excel and Graphpad Prism.

[3] = system: Mino subcutaneous xenograft tumor; assay: In-vivo pharmacodynamic study on Mino subcutaneous xenograft tumor models; settings: CB17 SCID mice, intragastric, twice a day
Method: In CB17 SCID mice, 0.2 mL of cell suspension containing 5×10^6 Mino cells was subcutaneously inoculated into the right back of each mouse, and when the mean tumor volume reaches approximately 139.94 mm3 (day 26 after inoculation), group administration was started (intragastric administration, twice a day, 14 days in total). Animals were monitored daily for health and mortality, and tumor diameters were measured twice a week using vernier calipers to see if tumor growth could be inhibited, delayed, or cured.

[4] = system: human diffuse large B lymphoma (TMD-8); assay: In-vitro tumor cell proliferation inhibition (CCK-8), TMD-8; settings: TMD8, 72 h, read-out: Tumor cell proliferation inhibitory activity (IC50, nM) TMD-8
Method: as §11, §12, §13, §14

HCK = HCK (Homo sapiens (Human), UniProt P08631); assay: Kinase selectivity experiment, HCK; type: biochemical; settings: read-out: Inhibitory activity against HCK (IC50)
Method: as §1, §2, §3, §4, §5, §6, §7, §8, §9, §10

[5] = system: human mantle cell lymphoma (MINO); assay: In-vitro tumor cell proliferation inhibition (CCK-8), MINO; settings: 72 h, read-out: Tumor cell proliferation inhibitory activity (IC50, μM) MINO
Method: as §11, §12, §13, §14

BLK = BLK (Homo sapiens (Human), UniProt P51451); assay: Kinase selectivity experiment, BLK; type: biochemical; settings: read-out: Inhibitory activity against BLK (IC50)
Method: as §1, §2, §3, §4, §5, §6, §7, §8, §9, §10

[6] = system: human lung cancer cell (A549); assay: In-vitro tumor cell proliferation inhibition (CCK-8), A549; settings: A549, 72 h, read-out: Tumor cell proliferation inhibitory activity (IC50, μM) A549
Method: as §11, §12, §13, §14

Sequence of ITK (Q08881 whole entry, species assumed): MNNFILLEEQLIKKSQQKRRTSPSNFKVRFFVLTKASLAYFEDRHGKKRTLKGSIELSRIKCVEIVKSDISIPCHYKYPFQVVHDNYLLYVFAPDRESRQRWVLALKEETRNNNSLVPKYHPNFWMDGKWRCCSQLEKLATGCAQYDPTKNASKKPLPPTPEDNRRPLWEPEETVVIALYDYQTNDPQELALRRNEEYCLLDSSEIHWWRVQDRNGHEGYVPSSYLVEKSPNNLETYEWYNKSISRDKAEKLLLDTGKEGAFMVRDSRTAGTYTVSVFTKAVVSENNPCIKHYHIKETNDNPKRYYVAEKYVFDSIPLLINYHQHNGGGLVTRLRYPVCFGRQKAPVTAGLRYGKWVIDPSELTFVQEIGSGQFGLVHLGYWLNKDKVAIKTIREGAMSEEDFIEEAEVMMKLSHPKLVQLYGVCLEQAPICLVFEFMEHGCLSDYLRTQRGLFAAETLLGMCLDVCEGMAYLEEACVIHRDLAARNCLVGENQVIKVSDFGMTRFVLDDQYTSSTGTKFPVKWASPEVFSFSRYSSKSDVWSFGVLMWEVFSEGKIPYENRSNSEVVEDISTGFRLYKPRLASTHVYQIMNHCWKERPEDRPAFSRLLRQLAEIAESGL
Sequence of hERG potassium channel (Q12809 whole entry): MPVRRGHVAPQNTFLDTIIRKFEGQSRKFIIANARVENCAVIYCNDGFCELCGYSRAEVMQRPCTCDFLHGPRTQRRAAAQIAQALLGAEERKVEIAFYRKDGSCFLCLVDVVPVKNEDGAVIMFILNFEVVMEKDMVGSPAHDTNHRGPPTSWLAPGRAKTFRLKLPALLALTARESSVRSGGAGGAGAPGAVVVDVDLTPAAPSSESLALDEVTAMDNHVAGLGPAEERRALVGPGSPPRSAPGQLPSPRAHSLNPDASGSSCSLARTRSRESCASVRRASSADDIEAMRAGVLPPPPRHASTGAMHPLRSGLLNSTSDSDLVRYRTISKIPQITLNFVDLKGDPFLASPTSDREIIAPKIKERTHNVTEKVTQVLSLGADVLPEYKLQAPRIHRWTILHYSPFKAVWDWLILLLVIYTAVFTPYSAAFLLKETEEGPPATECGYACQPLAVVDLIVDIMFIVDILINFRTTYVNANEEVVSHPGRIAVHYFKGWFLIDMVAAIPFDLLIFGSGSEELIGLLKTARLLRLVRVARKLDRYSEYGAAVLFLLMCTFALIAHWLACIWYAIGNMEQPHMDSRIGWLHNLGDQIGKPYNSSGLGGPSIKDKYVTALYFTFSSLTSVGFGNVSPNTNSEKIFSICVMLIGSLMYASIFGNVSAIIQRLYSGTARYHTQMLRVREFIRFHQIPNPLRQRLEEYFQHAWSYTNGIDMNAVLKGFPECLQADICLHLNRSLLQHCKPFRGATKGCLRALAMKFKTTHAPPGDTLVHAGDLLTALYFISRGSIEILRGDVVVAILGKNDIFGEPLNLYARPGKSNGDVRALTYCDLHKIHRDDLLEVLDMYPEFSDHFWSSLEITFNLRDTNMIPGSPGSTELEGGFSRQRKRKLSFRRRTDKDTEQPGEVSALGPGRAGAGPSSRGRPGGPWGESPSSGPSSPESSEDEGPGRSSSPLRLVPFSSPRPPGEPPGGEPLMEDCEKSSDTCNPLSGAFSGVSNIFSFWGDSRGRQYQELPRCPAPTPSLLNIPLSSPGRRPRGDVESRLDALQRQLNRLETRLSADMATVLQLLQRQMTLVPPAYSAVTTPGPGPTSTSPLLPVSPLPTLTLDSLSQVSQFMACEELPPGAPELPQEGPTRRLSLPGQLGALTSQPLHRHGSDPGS
Sequence of HCK (P08631 whole entry, species assumed): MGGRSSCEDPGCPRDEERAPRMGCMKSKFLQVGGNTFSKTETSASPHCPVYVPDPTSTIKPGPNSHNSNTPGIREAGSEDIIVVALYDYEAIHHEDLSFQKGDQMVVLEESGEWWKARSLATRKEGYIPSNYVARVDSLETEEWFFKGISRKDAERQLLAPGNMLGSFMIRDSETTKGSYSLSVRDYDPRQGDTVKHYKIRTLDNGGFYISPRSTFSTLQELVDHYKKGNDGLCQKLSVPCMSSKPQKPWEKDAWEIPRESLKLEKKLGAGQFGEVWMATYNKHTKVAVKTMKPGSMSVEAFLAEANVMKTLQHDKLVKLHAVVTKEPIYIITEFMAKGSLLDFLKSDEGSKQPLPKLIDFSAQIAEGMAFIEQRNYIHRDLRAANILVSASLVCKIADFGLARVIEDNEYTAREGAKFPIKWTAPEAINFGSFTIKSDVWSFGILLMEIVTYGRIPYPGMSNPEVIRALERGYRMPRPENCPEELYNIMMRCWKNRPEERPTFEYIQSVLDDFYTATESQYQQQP
Sequence of JAK3 (P52333 whole entry, species assumed): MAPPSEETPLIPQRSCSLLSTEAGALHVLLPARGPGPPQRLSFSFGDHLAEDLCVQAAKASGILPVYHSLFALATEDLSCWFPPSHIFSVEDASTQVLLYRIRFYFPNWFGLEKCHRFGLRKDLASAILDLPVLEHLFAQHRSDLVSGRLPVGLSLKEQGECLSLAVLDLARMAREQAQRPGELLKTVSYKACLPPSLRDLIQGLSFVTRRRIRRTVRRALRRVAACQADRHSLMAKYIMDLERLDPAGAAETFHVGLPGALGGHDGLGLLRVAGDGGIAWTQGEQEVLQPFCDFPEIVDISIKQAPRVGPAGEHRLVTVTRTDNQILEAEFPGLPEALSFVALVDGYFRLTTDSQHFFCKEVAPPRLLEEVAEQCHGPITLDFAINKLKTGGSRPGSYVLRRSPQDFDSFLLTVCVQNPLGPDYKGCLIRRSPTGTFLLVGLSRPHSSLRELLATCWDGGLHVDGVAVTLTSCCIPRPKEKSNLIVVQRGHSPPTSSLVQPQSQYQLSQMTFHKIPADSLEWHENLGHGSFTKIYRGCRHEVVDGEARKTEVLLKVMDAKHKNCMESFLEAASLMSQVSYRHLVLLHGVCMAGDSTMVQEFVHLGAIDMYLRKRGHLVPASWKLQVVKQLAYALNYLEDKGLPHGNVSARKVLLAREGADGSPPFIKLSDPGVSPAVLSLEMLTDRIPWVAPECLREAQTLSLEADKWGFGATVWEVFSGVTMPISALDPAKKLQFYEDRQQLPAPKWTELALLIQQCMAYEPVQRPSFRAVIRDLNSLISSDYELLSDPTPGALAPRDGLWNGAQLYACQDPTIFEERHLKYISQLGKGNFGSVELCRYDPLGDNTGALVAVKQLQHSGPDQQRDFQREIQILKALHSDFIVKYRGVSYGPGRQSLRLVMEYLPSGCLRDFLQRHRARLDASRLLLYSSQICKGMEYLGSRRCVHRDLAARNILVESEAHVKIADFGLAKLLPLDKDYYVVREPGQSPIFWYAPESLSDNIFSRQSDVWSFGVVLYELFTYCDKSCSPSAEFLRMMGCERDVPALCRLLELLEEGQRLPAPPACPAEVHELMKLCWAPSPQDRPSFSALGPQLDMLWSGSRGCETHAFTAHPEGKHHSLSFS
Sequence of FLT3 (P36888 27-993, species assumed): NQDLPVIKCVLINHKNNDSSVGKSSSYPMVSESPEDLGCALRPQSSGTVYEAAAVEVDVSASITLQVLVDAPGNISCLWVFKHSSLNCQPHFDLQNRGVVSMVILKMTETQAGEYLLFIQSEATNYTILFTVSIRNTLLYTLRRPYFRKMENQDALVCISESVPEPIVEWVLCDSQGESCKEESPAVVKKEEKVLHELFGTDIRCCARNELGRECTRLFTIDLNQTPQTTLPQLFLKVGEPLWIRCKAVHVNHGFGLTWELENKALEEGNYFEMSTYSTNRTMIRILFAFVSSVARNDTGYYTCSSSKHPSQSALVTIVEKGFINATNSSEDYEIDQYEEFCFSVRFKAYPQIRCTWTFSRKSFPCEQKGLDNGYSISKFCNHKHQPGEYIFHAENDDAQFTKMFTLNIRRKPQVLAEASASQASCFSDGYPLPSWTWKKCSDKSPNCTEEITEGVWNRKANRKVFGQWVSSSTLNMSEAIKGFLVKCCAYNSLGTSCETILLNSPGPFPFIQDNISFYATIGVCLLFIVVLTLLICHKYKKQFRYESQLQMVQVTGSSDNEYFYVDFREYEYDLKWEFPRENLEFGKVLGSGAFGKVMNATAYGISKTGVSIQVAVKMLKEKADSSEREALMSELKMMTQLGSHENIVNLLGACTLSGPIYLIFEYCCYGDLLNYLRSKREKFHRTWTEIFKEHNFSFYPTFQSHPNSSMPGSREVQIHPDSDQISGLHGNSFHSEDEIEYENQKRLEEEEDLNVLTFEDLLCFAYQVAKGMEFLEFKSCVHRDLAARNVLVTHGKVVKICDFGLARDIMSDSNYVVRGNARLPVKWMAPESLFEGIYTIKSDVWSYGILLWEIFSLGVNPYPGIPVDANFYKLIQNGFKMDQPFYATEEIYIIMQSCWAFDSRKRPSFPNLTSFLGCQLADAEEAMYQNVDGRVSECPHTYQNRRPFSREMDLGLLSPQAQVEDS
Sequence of CSK (P41240 whole entry, species assumed): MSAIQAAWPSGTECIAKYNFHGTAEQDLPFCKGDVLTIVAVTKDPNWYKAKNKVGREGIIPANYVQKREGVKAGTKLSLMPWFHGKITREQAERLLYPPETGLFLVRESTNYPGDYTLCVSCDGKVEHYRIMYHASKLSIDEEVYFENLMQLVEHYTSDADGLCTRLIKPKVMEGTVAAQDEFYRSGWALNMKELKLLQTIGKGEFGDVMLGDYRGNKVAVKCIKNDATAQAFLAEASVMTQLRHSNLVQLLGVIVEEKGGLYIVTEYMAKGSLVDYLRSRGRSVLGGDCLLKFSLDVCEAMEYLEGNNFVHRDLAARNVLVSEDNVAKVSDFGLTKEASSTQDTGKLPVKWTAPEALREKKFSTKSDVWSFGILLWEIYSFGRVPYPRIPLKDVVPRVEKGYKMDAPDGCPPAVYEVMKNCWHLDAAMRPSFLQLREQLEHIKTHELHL

For `C=CC(=O)N1CCC[C@@H](n2nc(-c3ccc(Oc4ccccc4)nc3F)c3c(N)ncnc32)C1` [Compound 17a, (R)-1-(3-(4-amino-3-(2-fluoro-6-phenoxypyridin-3-yl)-1H-pyrazolo[3,4-d]pyrimidin-1-yl)piperidin-1-yl)prop-2-en-1-one], the IC50 (ITK) was over 1 µM, the IC50 (JAK3) was over 1 µM and the IC50 (FGR) was over 1 µM. The IC50 [1] was 1.41 nM, the “level of IL-1β in serum (in words)” value ([2]; 10 mg/kg orally once a day, versus model group) was “significantly reduce” and the “IL-1β” value ([2]; serum on Day 13, 10 mg/kg orally once a day Day 2 to Day 12) was 17.25 ± 3.9 ng/L. The “inflammatory cell infiltration, synovial hyperplasia, inflammatory granulation tissue formation, necrotic tissue” value ([2]; tissue samples after treatment, versus model group) was “significantly improved”, the IC50 (FLT3) was over 1 µM and the IC50 (CSK) was over 1 µM. For the same compound, the IC50 (hERG potassium channel) was 7.8 µM, the “TGI*(14 days) (%) calculated on the basis of tumor volume” value [3] was 82.54% and the “TGI**(14 days) (%) calculated on the basis of tumor weight” value [3] was 74.05%. The IC50 [4] was 5.57 nM, the IC50 (HCK) was over 1 µM and the IC50 [5] was 8.62 µM. The IC50 (BLK) was 0.011 µM and the IC50 [6] was 1.67 µM.
